Source: patent US20150111262A1, “METHODS AND MATERIALS FOR PRODUCING FIVE CARBON BUILDING BLOCKS FROM PROLINE” (INVISTA North America S.á r.l., priority 2013, published 2015)

What was measured:
diamine transaminase = settings: Kim, 1964; cited from earlier work
[1] = target: T1, carboxylate reductase of SEQ ID NO: 1 (Mycobacterium marinum, UniProt B2HN69); experiment: carboxylate reductase activity, 5-hydroxypentanoate to 5-hydroxypentanal; type: biochemical; settings: SEQ ID NO 1, enhanced by sfp gene product; 1 mM ATP, 1 mM NADPH, pH 7.5, room temperature, 20 min; FIG. 12
T1 construct: His-tag (N); made in house; host or cells: E. coli BL21[DE3], pET Duet
T1 sequence (B2HN69 whole entry): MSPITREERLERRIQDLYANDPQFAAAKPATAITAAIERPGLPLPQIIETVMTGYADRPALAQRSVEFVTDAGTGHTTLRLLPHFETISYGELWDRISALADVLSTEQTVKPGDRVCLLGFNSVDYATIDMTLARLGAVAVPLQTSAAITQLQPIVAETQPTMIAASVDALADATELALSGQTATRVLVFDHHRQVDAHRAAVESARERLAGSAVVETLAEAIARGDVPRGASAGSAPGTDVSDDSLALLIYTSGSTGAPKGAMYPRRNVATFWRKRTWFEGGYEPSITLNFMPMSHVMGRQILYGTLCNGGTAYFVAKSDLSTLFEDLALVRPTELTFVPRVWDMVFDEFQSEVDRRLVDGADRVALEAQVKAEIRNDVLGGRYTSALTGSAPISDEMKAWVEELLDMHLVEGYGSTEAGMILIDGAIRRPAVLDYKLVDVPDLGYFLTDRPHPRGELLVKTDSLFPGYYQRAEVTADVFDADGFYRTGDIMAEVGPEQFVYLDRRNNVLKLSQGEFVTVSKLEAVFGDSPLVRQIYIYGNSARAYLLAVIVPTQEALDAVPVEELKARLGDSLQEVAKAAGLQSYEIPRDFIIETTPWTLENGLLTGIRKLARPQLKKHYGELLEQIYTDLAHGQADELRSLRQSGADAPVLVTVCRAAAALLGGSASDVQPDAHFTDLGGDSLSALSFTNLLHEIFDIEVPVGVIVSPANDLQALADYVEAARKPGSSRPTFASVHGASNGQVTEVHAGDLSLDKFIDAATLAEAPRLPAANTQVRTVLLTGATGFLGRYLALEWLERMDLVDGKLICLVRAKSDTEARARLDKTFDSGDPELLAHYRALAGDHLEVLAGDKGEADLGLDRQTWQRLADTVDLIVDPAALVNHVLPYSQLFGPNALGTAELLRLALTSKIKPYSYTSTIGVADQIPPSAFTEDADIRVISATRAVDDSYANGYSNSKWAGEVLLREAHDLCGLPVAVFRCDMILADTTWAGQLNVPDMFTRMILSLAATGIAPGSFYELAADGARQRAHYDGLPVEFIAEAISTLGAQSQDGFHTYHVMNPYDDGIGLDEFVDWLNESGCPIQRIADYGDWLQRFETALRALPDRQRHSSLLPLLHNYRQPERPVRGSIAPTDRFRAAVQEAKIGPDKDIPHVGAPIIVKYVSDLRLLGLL
Method: (§1) A sequence encoding a His-tag was added to the genes from Mycobacterium marinum, Mycobacterium smegmatis, Segniliparus rugosus, Mycobacterium massiliense, and Segniliparus rotundus that encode the carboxylate reductases of SEQ ID NOs: 1, 2, 3, 5 and 6, respectively (see FIG. 7) such that N-terminal HIS tagged carboxylate reductases could be produced. Each of the modified genes was cloned into a pET Duet expression vector alongside a sfp gene encoding a His-tagged phosphopantetheine transferase from Bacillus subtilis, both under control of the T7 promoter.
(§2) Each expression vector was transformed into a BL21[DE3] E. coli host and the resulting recombinant E. coli strains were cultivated at 37° C. in a 250 mL shake flask culture containing 50 mL LB media and antibiotic selection pressure, with shaking at 230 rpm. Each culture was induced overnight at 37° C. using an auto-induction media.
(§3) The pellet from each induced shake flask culture was harvested via centrifugation. Each pellet was resuspended and lysed via sonication. […]
(§4) Enzyme activity (i.e., 5-hydroxypentanoate to 5-hydroxypentanal) assays were performed in triplicate in a buffer composed of a final concentration of 50 mM HEPES buffer (pH=7.5), 2 mM 5-hydroxypentanal, 10 mM MgCl2, 1 mM ATP, and 1 mM NADPH. […] The consumption of NADPH was monitored by absorbance at 340 nm.

[2] = tested on: carboxylate reductase of SEQ ID NO: 2; experiment: as above; type: biochemical, Mycobacterium smegmatis; settings: SEQ ID NO 2, enhanced by sfp gene product; 1 mM ATP, 1 mM NADPH, pH 7.5, room temperature, 20 min; FIG. 12
Method: as §1, §2, §3, §4

[3] = tested on: carboxylate reductase of SEQ ID NO: 3; experiment: as above; type: biochemical, Segniliparus rugosus; settings: SEQ ID NO 3, enhanced by sfp gene product; 1 mM ATP, 1 mM NADPH, pH 7.5, room temperature, 20 min; FIG. 12
Method: as §1, §2, §3, §4

[4] = tested on: carboxylate reductase of SEQ ID NO: 5; experiment: as above; type: biochemical, Mycobacterium massiliense; settings: SEQ ID NO 5, enhanced by sfp gene product; 1 mM ATP, 1 mM NADPH, pH 7.5, room temperature, 20 min; FIG. 12
Method: as §1, §2, §3, §4

[5] = tested on: carboxylate reductase of SEQ ID NO: 6; experiment: as above; type: biochemical, Segniliparus rotundus; settings: SEQ ID NO 6, enhanced by sfp gene product; 1 mM ATP, 1 mM NADPH, pH 7.5, room temperature, 20 min; FIG. 12
Method: as §1, §2, §3, §4

[6] = tested on: reversible 5-aminovalerate transaminase; settings: Barker et al., J. Biol. Chem., 1987; cited from earlier work
[7] = tested on: reversible ω-transaminase (SEQ ID NO: 7); settings: Kaulmann et al., 2007; cited from earlier work
[8] = tested on: reversible 4-aminobubyrate:2-oxoglutarate transaminase; settings: Yonaha et al., Eur. J. Biochem., 1985; cited from earlier work
[9] = tested on: ω-transaminase of SEQ ID NO: 9; experiment: ω-transaminase activity, glutarate semialdehyde to 5-aminopentanoate (reverse direction); type: biochemical, Pseudomonas syringae; settings: cell free extract; 10 mM glutarate semialdehyde, 10 mM L-alanine, pH 7.5, 25° C., 4 h; RP-HPLC; FIG. 9
Method: A sequence encoding an N-terminal His-tag was added to the genes from Chromobacterium violaceum and Pseudomonas syringae encoding the ω-transaminases of SEQ ID NOs: 7 and 9, respectively (see FIG. 7) such that N-terminal HIS tagged ω-transaminases could be produced. Each of the resulting modified genes was cloned into a pET21a expression vector under control of the T7 promoter and each expression vector was transformed into a BL21[DE3] E. coli host. The resulting recombinant E. coli strains were cultivated at 37° C. in a 250 mL shake flask culture containing 50 mL LB media and antibiotic selection pressure, with shaking at 230 rpm. Each culture was induced overnight at 16° C. using 1 mM IPTG.
The pellet from each induced shake flask culture was harvested via centrifugation. Each pellet was resuspended and lysed via sonication. The cell debris was separated from the supernatant via centrifugation and the cell free extract was used immediately in enzyme activity assays.
Enzyme activity in the reverse direction (i.e., glutarate semialdehyde to 5-aminopentanoate) were performed in a buffer composed of a final concentration of 50 mM HEPES buffer (pH=7.5), 10 mM glutarate semialdehyde, 10 mM L-alanine and 100 μM pyridoxyl 5′ phosphate. […] The formation of pyruvate was quantified via RP-HPLC.

[10] = tested on: carboxylate reductase of SEQ ID NO 6; experiment: carboxylate reductase activity, glutarate semialdehyde to pentanedial; type: biochemical, Segniliparus rotundus; settings: SEQ ID NO 6, enhanced by sfp gene product; 2 mM glutarate semialdehyde, 1 mM ATP, 1 mM NADPH, pH 7.5, room temperature, 20 min; FIG. 15
Method: The N-terminal His-tagged carboxylate reductase of SEQ ID NO 6 (see Example 2 and FIG. 7) was assayed using glutarate semialdehyde as substrate. The enzyme activity assay was performed in triplicate in a buffer composed of a final concentration of 50 mM HEPES buffer (pH=7.5), 2 mM glutarate semialdehyde, 10 mM MgCl2, 1 mM ATP and 1 mM NADPH. The enzyme activity assay reaction was initiated by adding purified carboxylate reductase and phosphopantetheine transferase or the empty vector control to the assay buffer containing the glutarate semialdehyde and then incubated at room temperature for 20 min. The consumption of NADPH was monitored by absorbance at 340 nm.

NCCCCCCCN [1,7 diaminoheptane]
diamine transaminase activity (diamine transaminase): demonstrated activity

O=C(O)CCCCO [5-hydroxypentanoate]
acceptance as substrate (consumption of NADPH, absorbance at 340 nm) vs empty vector control [1]: accepted 5-hydroxypentanoate as substrate
acceptance as substrate (consumption of NADPH, absorbance at 340 nm) vs empty vector control [2]: accepted 5-hydroxypentanoate as substrate
acceptance as substrate (consumption of NADPH, absorbance at 340 nm) vs empty vector control [3]: accepted 5-hydroxypentanoate as substrate
acceptance as substrate (consumption of NADPH, absorbance at 340 nm) vs empty vector control [4]: accepted 5-hydroxypentanoate as substrate
acceptance as substrate (consumption of NADPH, absorbance at 340 nm) vs empty vector control [5]: accepted 5-hydroxypentanoate as substrate

NCCCCCC(=O)O [6-aminohexanoate]
activity for the conversion to adipate semialdehyde [6]: demonstrated analogous activity
activity accepting as amino donor [7]: demonstrated analogous activity
activity for the conversion to adipate semialdehyde [8]: demonstrated analogous activity

O=CCCCC(=O)O [glutarate semialdehyde]
acceptance as substrate (conversion of L-alanine to pyruvate) vs empty vector control [9]: accepted glutarate semialdehyde as substrate
acceptance as substrate (consumption of NADPH, absorbance at 340 nm) vs empty vector control [10]: accepted glutarate semialdehyde as substrate
